These results are taken from EP1818052A1 (Acacia Pharma Limited, priority 2004, dated 2006).

Structures are written as SMILES. “And” between values parts separate entries of the source, which are not always exact repeats. Equal entries are not always repeated. Where two headings read alike, the source gives them in different places.

Assay [1] deals with isolated EDL muscles. Kind of assay: Proteolytic rate (tyrosine release) in incubated isolated EDL muscles. It counts as cell-based, rats. Particulars: for Proteolytic rate: EDL muscles from control rats, 10^-4 M added to incubation medium, cycloheximide 0.5 mM. As for the experimental part:
(§1) The dissection and isolation of the EDL muscles was carried out under ketamine/xylazine mixture anesthesia. […] Such muscles are able to maintain normal ATP and phosphocreatine concentrations during a 3 hours incubation period. The muscles were incubated in a shaking-thermostatized water bath at 35 °C for 3 hours in 2 ml of Krebs-Henseleit physiological saline pH 7.4, containing 5 mM glucose and 20 mM HEPES. After the addition of the muscles to the vials, the incubation started at a shaking rate of 45 cycles/min.
(§2) Total protein degradation by the isolated muscles was calculated as the rate of tyrosine released in the last two hours of incubation into the medium in the presence of 0.5 mM cycloheximide in order to block the reincorporation of tyrosine into tissue protein. Tyrosine was measured fluorimetrically. Statistical analysis of the data was performed by means of the Student's t test.

Assay [2] has as its system isolated EDL muscles. As for the experimental part: as §1, §2
Rates were measured in presence of cycloheximide (0.5 mM) and are expressed as nmols/g and 2 hours. […]

Assay [3] has as its system isolated EDL muscles. As to the kind of experiment: Protein synthesis rate in incubated isolated EDL muscles. It counts as cell-based, rats. Particulars: for Rate of protein synthesis: EDL muscles from control rats, 10^-4 M added to incubation medium; for increase of the rate of protein synthesis: incubated rat EDL muscles, 10^-4 M in medium. As to the method:
as §1
Synthetic rates are expressed as nmols of [^14C]phenylalanine incorporated per g and 30 min. […]

In assay [4] the test system is rats bearing Yoshida AH-130 ascites hepatoma. Particulars: rat, in vivo.
Assay [5] shares this test system. The following applies: rat, in vivo. This is another data set of the same source.
Assay [6] has the same test system. The following applies: rat, in vivo. This is another data set of the same source.
Assay [7] relates to tibialis muscles previously injected with bupivacain. Kind of assay: Muscular damage by bupivacain: tibialis muscle weight. It counts as in vivo. Particulars: rats injected with bupivacain (0.5%) only (C+B). The text has this: Muscular regeneration is a process that implies satellite cells activation, muscle precursors cells that lie adjacent to the skeletal muscle fibers. The muscle was damaged by injecting bupivacain intramuscularly (0.5%). This compound, after muscle damage, stimulates muscular regeneration.
Muscle weights are expressed as mg/100 g of initial body weight. Results are mean ± SEM for the number of animals indicated in parentheses.

Another assay concerns Pax-7 and myogenin. Kind of assay: Real time PCR of satellite cell activation markers in tibialis muscle after bupivacain damage. It counts as in vivo, rats. Particulars: bupivacain (0.5%) only (C + B). From the text: PAx-7 and myogenin. Results are mean ± SEM for the number of animals indicated in parentheses.

Consider `COc1ccc(C[C@H](C)NC[C@@H](O)c2ccc(O)c(NC=O)c2)cc1` (racemic) [formoterol], for which, in the assay with isolated EDL muscles [1], the Proteolytic rate was 180 ± 5.6 (8) nmols/g and 2 hours. In the assay with isolated EDL muscles [1] (isolated EDL muscles, 10^-4 M in medium), the “decrease of the rate of protein degradation (release of tyrosine)” value stood at 20%. Besides, the Proteolytic rate with isolated EDL muscles [2] (EDL muscles from rats given formoterol 2 mg/kg bw for six consecutive days, cycloheximide 0.5 mM) is 159 ± 5 (8) nmols/g and 2 hours. Besides, the “decrease of proteolytic rate” value with isolated EDL muscles [2] (EDL muscles from rats pre-treated for six consecutive days) amounted to 12%. In the assay on isolated EDL muscles [3], the “Rate of protein synthesis” value was 9.36 ± 0.3 (7) nmols of [14C]phenylalanine in and the “increase of the rate of protein synthesis” value was 20%. For the same molecule, in assay [4], the Tumor cell number result is on record as “not significantly affected”; the “adipose tissues weight: brown (interscapular)” value was 278 ± 21 mg/100 g of initial body weight and 177 ± 11 † *** mg/100 g of initial body weight; the “adipose tissues weight: white (dorsal)” value was 759 ± 126 mg/100 g of initial body weight and 461 ± 49 mg/100 g of initial body weight; the “brown adipose tissue weight” value was “increase”. In assay [4], the carcass weight was 113 ± 11 g/100 g of initial body weight and 81 ± 1 g/100 g of initial body weight; the “increase in EDL weight” value is 32% and 16%; the “increase in cardiac muscle weight” value was determined as 21%; the “increase in heart weight” value turned out to be 11%. In addition, in assay [4], the “muscle weight: EDL” value was 70 ± 3 mg/100 g of initial body weight and 50 ± 1 ††† *** mg/100 g of initial body weight; the “muscle weight: gastrocnemius” value was 859 ± 38 mg/100 g of initial body weight and 639 ± 16 mg/100 g of initial body weight; the “muscle weight: heart” value is 520 ± 15 mg/100 g of initial body weight and 426 ± 17 † ** mg/100 g of initial body weight; the “muscle weight: soleus” value is 55 ± 4 mg/100 g of initial body weight and 40 ± 1 mg/100 g of initial body weight. For the same molecule, in assay [4], the “muscle weight: tibialis” value is 275 ± 12 mg/100 g of initial body weight and 204 ± 4 †† *** mg/100 g of initial body weight; the “trophic action on soleus” value is “not significantly affected”; the tumor cell content is 3403 ± 88 (5) millions of cells; the “white adipose tissue mass” value is listed as “tendency towards a decrease”. In addition, in assay [5], the efficacy against cachexia result is on record as “effective against cachexia”; the “muscle weights: soleus” value is 37 ± 1 mg/100 g of initial body weight and 33 ± 2 mg/100 g of initial body weight and 37 ± 2 mg/100 g of initial body weight. For the same molecule, in assay [6], the carcass weigth was 106 ± 1 g/100 g of initial body weight and 97 ± 1 g/100 g of initial body weight; the “effect on cancer cachexia” value is listed as “effective at low doses”; the “muscle weigths: EDL” value was 52 ± 1 t mg/100 g of initial body weight and 51 ± 2 t mg/100 g of initial body weight; the “muscle weigths: gastrocnemius” value is 629 ± 9 mg/100 g of initial body weight and 598 ± 16 mg/100 g of initial body weight. In assay [6], the “muscle weigths: heart” value was 431 ± 5 mg/100 g of initial body weight and 417 ± 18 mg/100 g of initial body weight; the “muscle weigths: soleus” value was 43 ± 2 mg/100 g of initial body weight and 43 ± 1 mg/100 g of initial body weight; the “muscle weigths: tibialis” value was 210 ± 5 t mg/100 g of initial body weight and 199 ± 4 t mg/100 g of initial body weight.
On to `CCCCN1CCCCC1C(=O)Nc1c(C)cccc1C` (stereo not shown) [B, bupivacain], for which the “weight of tibialis muscles” value in assay [7] is listed as 265 ± 4 mg/100 g of initial body weight. Besides, in the assay on Pax-7 and myogenin, the Myogenin gene expression amounted to 142 ± 77 and the Pax-7 gene expression turned out to be 105 ± 11.
Consider `CC(C)(C)NCC(O)c1cc(Cl)c(N)c(Cl)c1` (stereo not shown) [clenbuterol], for which the Proteolytic rate with isolated EDL muscles [1] is 176 ± 4.4 (8) nmols/g and 2 hours. In the assay on isolated EDL muscles [3], the “Rate of protein synthesis” value was 9.36 ± 0.5 (9) nmols of [14C]phenylalanine in and the “increase of the rate of protein synthesis” value is listed as 20%.
